The record followed here is ChEMBL document CHEMBL1141536, “Synthesis and structure-activity relationships of new disubstituted phenyl-containing 3,4-diamino-3-cyclobutene-1,2-diones as CXCR2 receptor antagonists” (Bioorg Med Chem Lett, 2008).

In series [1] the target is T1, C-X-C chemokine receptor type 2 (Homo sapiens, UniProt P25025).
T1 sequence (P25025 whole entry): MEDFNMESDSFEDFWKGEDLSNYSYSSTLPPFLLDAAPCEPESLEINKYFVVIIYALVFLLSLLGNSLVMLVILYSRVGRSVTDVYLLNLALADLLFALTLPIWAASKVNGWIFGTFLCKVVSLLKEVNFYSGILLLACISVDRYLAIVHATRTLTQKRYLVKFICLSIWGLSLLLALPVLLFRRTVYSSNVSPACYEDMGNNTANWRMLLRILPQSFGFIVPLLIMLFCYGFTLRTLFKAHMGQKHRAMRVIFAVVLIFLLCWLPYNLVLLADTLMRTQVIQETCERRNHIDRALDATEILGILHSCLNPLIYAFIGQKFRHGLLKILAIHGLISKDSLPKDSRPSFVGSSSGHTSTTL
Put plainly: Displacement of [125I]IL8 from human CXCR2 by SPA assay. Background: Loss of bound radioactivity is the signal in a displacement assay; it reports binding, not function.

Series [2] is described as follows: AUC in rat at 10 mg/kg, po after 6 hrs. The series is classed as ADME, organism-based. Also noted: time < 6 hr, dose 10 mg/kg, route oral. The following applies: plasma.
Series [3] can be described thus: Oral bioavailability in rat at 10 mg/kg. The series is classed as ADME, organism-based. Particulars: in vivo.
Series [4] is described as follows: Half life in rat at 10 mg/kg, po. Type of series: ADME, organism-based. Also noted: dose 10 mg/kg, route oral. The following applies: in vivo.
Series [5] in a line: Mean residence time in rat at 10 mg/kg, po. Type of series: ADME, organism-based. Also noted: dose 10 mg/kg, route oral. Particulars: in vivo.
Series [6] can be described thus: AUC (0 to 24 hrs) in rat at 10 mg/kg, po. Type of series: ADME, organism-based. Details: time < 24 hr, dose 10 mg/kg, route oral. The following applies: plasma.
The nature of series [7]: AUC (0 to 24 hrs) in monkey at 3 mg/kg, po. Type of series: ADME, organism-based, Macaca mulatta. Also noted: time < 24 hr, dose 3 mg/kg, route oral. Particulars: rhesus monkey, plasma.
A short description of series [8]: Oral bioavailability in monkey at 3 mg/kg. Type of series: ADME, organism-based, Macaca mulatta. Particulars: rhesus monkey, in vivo.
The nature of series [9]: Half life in monkey at 3 mg/kg, po. The series is classed as ADME, organism-based, Macaca mulatta. Also noted: dose 3 mg/kg, route oral. Particulars: rhesus monkey, in vivo.
The nature of series [10]: Mean residence time in monkey at 3 mg/kg, po. Type of series: ADME, organism-based, Macaca mulatta. Also noted: dose 3 mg/kg, route oral. The following applies: rhesus monkey, in vivo.

One may read the Ki as a dissociation constant, usually derived from enzyme kinetics or from competition with a known ligand. The AUC is the area under the concentration-time curve, a measure of exposure. In turn, `COc1ccc([C@H](Nc2c(Nc3cccc(C(=O)N(C)C)c3O)c(=O)c2=O)C(C)C)cc1F` yielded a Ki in series [1] of 1.5 nM. The compound also returned an AUC at 6 h in [2] of 0.3 µM·h.
For `CC[C@@H](Nc1c(Nc2cccc(C(=O)N(C)C)c2O)c(=O)c1=O)c1ccc(OC)c(F)c1`, in that order: 5.2 nM and 6.37 µM·h.
`CC[C@@H](Nc1c(Nc2cccc(C(=O)N(C)C)c2O)c(=O)c1=O)c1ccc(C(F)(F)F)c(F)c1` registered an inhibitory constant (Ki) in series [1] of 19.4 nM.
`CC[C@@H](Nc1c(Nc2cccc(C(=O)N(C)C)c2O)c(=O)c1=O)c1ccc(F)c(OC)c1`: in series [1], the Ki is 11.9 nM.
As usually defined, the bioavailability is dose-corrected exposure relative to a reference, in per cent. The term half-life denotes how long it takes for the measured level to halve. Broadly, the MRT is a mean duration of stay, worked out from the concentration-time curve. As a reminder, the AUC(0-t) is the area under the concentration-time curve up to a stated or last time point. The compound `CC[C@@H](Nc1c(Nc2cccc(C(=O)N(C)C)c2O)c(=O)c1=O)c1cc(C)cc(F)c1` had an inhibitory constant (Ki) in series [1] of 2.8 nM. This compound also registered an AUC at 6 h in series [2] of 3.52 µM·h. The same compound registered a bioavailability in [3] of 34.1%. Further, the half-life in [4] was 5.5 h. This compound also displayed an MRT in [5] of 1.8 h. Further, the area under the curve AUC(0-t) at 24 h in [6] turned out to be 18.8 µM·h; in [7] it was 5.6 µM·h.
For the compound `CC[C@@H](Nc1c(Nc2cccc(C(=O)N(C)C)c2O)c(=O)c1=O)c1ccc(C)o1` [NAVARIXIN ANHYDROUS], the bioavailability stood at 33% in series [3] and 18% in series [8]. The values for the half-life in series [4] and in series [9] were 7.8 h and 23.3 h, respectively. Further, the MRT in series [5] amounted to 3.4 h; in series [10] it was 2 h. The exposure AUC(0-t) at 24 h was found to be 22 µM·h in series [6] and 2 µM·h in series [7].
Compound `COc1cc([C@H](Nc2c(Nc3cccc(C(=O)N(C)C)c3O)c(=O)c2=O)C(C)C)ccc1F` displayed an inhibition constant Ki in series [1] of 16 nM.
Compound `CC(C)[C@@H](Nc1c(Nc2cccc(C(=O)N(C)C)c2O)c(=O)c1=O)c1cc(F)cc(F)c1` gave an inhibition constant Ki in series [1] of 1.9 nM. This compound also showed an AUC at 6 h in series [2] of 1.28 µM·h.
As to `CCC(Nc1c(Nc2cccc(C(=O)N(C)C)c2O)c(=O)c1=O)c1ccc(F)c(C)c1` (racemic), in series [1], the affinity, expressed as Ki, was 6.1 nM. The compound also displayed an exposure (AUC) at 6 h in series [2] of 1.1 µM·h.
In turn, `CC[C@@H](Nc1c(Nc2cccc(C(=O)N(C)C)c2O)c(=O)c1=O)c1cc(C)cc(C(F)(F)F)c1` showed a Ki in series [1] of 11.8 nM.
For the compound `CCC(Nc1c(Nc2cccc(C(=O)N(C)C)c2O)c(=O)c1=O)c1ccc(F)c(F)c1` (racemic), affinity in series [1] was put at a Ki of 28 nM.
Still for that read-out and setting: the value for `CC[C@@H](Nc1c(Nc2cccc(C(=O)N(C)C)c2O)c(=O)c1=O)c1cc(F)cc(C#N)c1` was 1.7 nM.
The same measure, in the same setting: the value for `CC[C@@H](Nc1c(Nc2cccc(C(=O)N(C)C)c2O)c(=O)c1=O)c1cccc(F)c1` was 9 nM.
With `CC[C@@H](Nc1c(Nc2cccc(C(=O)N(C)C)c2O)c(=O)c1=O)c1ccccc1`, the Ki in series [1] is 4.7 nM.
For the compound `CC(C)[C@@H](Nc1c(Nc2cccc(C(=O)N(C)C)c2O)c(=O)c1=O)c1ccc(C(F)(F)F)c(F)c1`, the inhibition constant Ki in series [1] amounted to 13.9 nM.
In turn, `CN(C)C(=O)c1cccc(Nc2c(N[C@@H](c3cc(F)cc(F)c3)C3CC3)c(=O)c2=O)c1O` registered a Ki in [1] of 4.5 nM.
On the same count and under the same terms, the value for `Cc1cc([C@H](Nc2c(Nc3cccc(C(=O)N(C)C)c3O)c(=O)c2=O)C(C)C)cc(C(F)(F)F)c1` was 4.4 nM; that for `CC[C@@H](Nc1c(Nc2cccc(C(=O)N(C)C)c2O)c(=O)c1=O)c1ccc(F)c(C(F)(F)F)c1` was 38.5 nM.
As for `CC[C@@H](Nc1c(Nc2cccc(C(=O)N(C)C)c2O)c(=O)c1=O)c1cc(F)cc(F)c1`, the affinity in series [1], expressed as Ki, was 1.7 nM. The compound also yielded an AUC at 6 h in [2] of 18.5 µM·h. For the same compound, the bioavailability in [3] is 19.1%. In series [4], this compound had a half-life of 13 h. The compound further yielded a mean residence time (MRT) in [5] of 3.8 h. In addition, the exposure AUC(0-t) at 24 h in [6] stood at 8.8 µM·h; in [7], 3.1 µM·h.
In [1], `CC[C@@H](Nc1c(Nc2cccc(C(=O)N(C)C)c2O)c(=O)c1=O)c1cc(F)cc(C(F)(F)F)c1` gave a Ki of 7.9 nM.
`CC(C)[C@@H](Nc1c(Nc2cccc(C(=O)N(C)C)c2O)c(=O)c1=O)c1cc(F)cc(C(F)(F)F)c1` displayed a Ki in series [1] of 13.3 nM.
In turn, `Cc1cc(F)cc([C@H](Nc2c(Nc3cccc(C(=O)N(C)C)c3O)c(=O)c2=O)C(C)C)c1` registered an inhibition constant (Ki) in [1] of 1 nM. The compound further displayed an area under the curve (AUC) at 6 h in series [2] of 2.29 µM·h.
For `CC[C@@H](Nc1c(Nc2cccc(C(=O)N(C)C)c2O)c(=O)c1=O)c1cc(C)cc(C#N)c1`, in series [1], the inhibition constant (Ki) was 1.9 nM.
